Test results: ChEMBL document CHEMBL1201862, “PubChem BioAssay data set” (2004)
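Interpolation was linear, between the two tested concentrations surrounding the appropriate level; five concentrations were tested over 48 hours in 96-well plates. Abbreviation: GI50, concentration required for 50% inhibition of growth.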 Activity calls are given as the source filed them. No stated cut-off is given here; in the data, active = GI50 up to about 1.1 µM and inactive = higher.

Experiments:
Assay in all cases: NCI-60 cell line screen, 48 h
SN12C = test system: SN12C
UO-31 = test system: UO-31
EKVX = test system: EKVX
OVCAR-4 = test system: OVCAR-4
KM12 = test system: KM12
LXFL 529 = test system: LXFL 529
NCI-H460 = test system: NCI-H460
CCRF-CEM = test system: CCRF-CEM
SF-295 = test system: SF-295
OVCAR-8 = test system: OVCAR-8
K562 = test system: K562
COLO 205 = test system: COLO 205
UACC-62 = test system: UACC-62
A549 = test system: A549
786-0 = test system: 786-0
IGROV-1 = test system: IGROV-1
HOP-62 = test system: HOP-62
Malme-3M = test system: Malme-3M

Measured: GI50

O=C(N/C=C/C=C/Sc1ccccc1)OCc1ccccc1
inactive: SN12C 17.1 µM | UO-31 17.5 µM | EKVX 24.8 µM | OVCAR-4 21.7 µM | KM12 17.5 µM | LXFL 529 17.1 µM | NCI-H460 21.7 µM | CCRF-CEM 52.1 µM | SF-295 19.6 µM | OVCAR-8 15.7 µM | K562 15.4 µM | COLO 205 17.7 µM | UACC-62 16 µM | A549 20.4 µM | 786-0 16.9 µM | IGROV-1 21.2 µM | HOP-62 24.5 µM

O=C(O)/C=C\C(=O)Nc1ccc(S(=O)(=O)c2ccc(NC(=O)/C=C\C(=O)O)cc2)cc1
inactive: SN12C > 100 µM | UO-31 > 100 µM | EKVX > 100 µM | OVCAR-4 > 100 µM | KM12 > 100 µM | LXFL 529 > 100 µM | CCRF-CEM > 100 µM | SF-295 > 100 µM | OVCAR-8 > 100 µM | K562 > 100 µM | COLO 205 > 100 µM | UACC-62 > 100 µM | A549 > 100 µM | Malme-3M > 100 µM | 786-0 > 100 µM | IGROV-1 > 100 µM | HOP-62 > 100 µM

N#Cc1cccc(-n2[nH]c(=O)ccc2=O)c1
inactive: UO-31 > 100 µM | OVCAR-4 > 100 µM | KM12 > 100 µM | LXFL 529 > 100 µM | NCI-H460 > 100 µM | CCRF-CEM > 100 µM | SF-295 > 100 µM | OVCAR-8 > 100 µM | K562 > 100 µM | COLO 205 > 100 µM | UACC-62 > 100 µM | A549 > 100 µM | Malme-3M > 100 µM | 786-0 > 100 µM | IGROV-1 > 100 µM | HOP-62 > 100 µM

N#CC(NNC(=O)c1ccccc1O)c1cccc(O)c1 (stereo unspecified)
inactive: SN12C 4.7 µM | UO-31 1.55 µM | OVCAR-4 3.36 µM | KM12 4.52 µM | LXFL 529 4.31 µM | NCI-H460 3.47 µM | CCRF-CEM 4.66 µM | SF-295 3.67 µM | OVCAR-8 8.22 µM | K562 2.31 µM | COLO 205 32.7 µM | UACC-62 1.85 µM | A549 2.21 µM | Malme-3M 12.9 µM | 786-0 6.53 µM | IGROV-1 3.4 µM | HOP-62 10.6 µM

C#CCn1c(=O)c2cccnc2n(CC#C)c1=O
inactive: SN12C > 100 µM | OVCAR-4 > 100 µM | KM12 > 100 µM | LXFL 529 > 100 µM | NCI-H460 > 100 µM | CCRF-CEM > 100 µM | SF-295 > 100 µM | COLO 205 > 100 µM | A549 > 100 µM | Malme-3M > 100 µM | 786-0 > 100 µM | HOP-62 > 100 µM

CN(CCO)c1nc(=O)c2c(n1C1OC(CO)C(O)C(O)C1O)CCCC2 (stereo unspecified)
inactive: SN12C > 100 µM | UO-31 > 100 µM | EKVX > 100 µM | KM12 > 100 µM | LXFL 529 > 100 µM | NCI-H460 > 100 µM | CCRF-CEM > 100 µM | SF-295 > 100 µM | OVCAR-8 > 100 µM | K562 > 100 µM | COLO 205 > 100 µM | UACC-62 > 100 µM | A549 > 100 µM | Malme-3M > 100 µM | 786-0 > 100 µM | IGROV-1 > 100 µM | HOP-62 > 100 µM

COc1ccc(-c2cc(C(=O)Nc3ccc(C)c(C)c3)nc(NC#N)n2)cc1
inactive: SN12C > 100 µM | UO-31 > 100 µM | EKVX > 100 µM | OVCAR-4 > 100 µM | KM12 > 100 µM | LXFL 529 > 100 µM | NCI-H460 > 100 µM | CCRF-CEM > 100 µM | OVCAR-8 > 100 µM | K562 > 100 µM | COLO 205 > 100 µM | UACC-62 > 100 µM | A549 > 100 µM | Malme-3M > 100 µM | 786-0 > 100 µM | IGROV-1 > 100 µM

N=C(N)C1=C(O)NC(=O)N(C2CCCCC2)C1
inactive: SN12C > 100 µM | UO-31 > 100 µM | OVCAR-4 > 100 µM | KM12 > 100 µM | LXFL 529 > 100 µM | NCI-H460 > 100 µM | CCRF-CEM > 100 µM | SF-295 > 100 µM | OVCAR-8 > 100 µM | K562 > 100 µM | COLO 205 > 100 µM | UACC-62 > 100 µM | A549 > 100 µM | Malme-3M > 100 µM | 786-0 > 100 µM | IGROV-1 > 100 µM | HOP-62 > 100 µM

Cn1cc(NC(=O)c2cc(NC(=O)CCCCCCC(=O)Nc3cc(C(=O)Nc4cc(C(=O)NCCC(=N)N)n(C)c4)n(C)c3)cn2C)cc1C(=O)NCCC(=N)N
inactive: SN12C 3.84 µM | UO-31 39.4 µM | EKVX 16.7 µM | OVCAR-4 36.1 µM | KM12 2.92 µM | LXFL 529 5.92 µM | NCI-H460 3.68 µM | CCRF-CEM > 100 µM | SF-295 25.9 µM | OVCAR-8 16.3 µM | K562 5.35 µM | COLO 205 6.08 µM | UACC-62 7.6 µM | A549 7.29 µM | Malme-3M 2.67 µM | 786-0 12.9 µM | IGROV-1 3.8 µM
